Literature values as cited in patent US12691066B2, “Dual-targeting biomimetic liposome with elemene (ELE) and cabazitaxel (CTX), and preparation method and use thereof” (HANGZHOU NORMAL UNIVERSITY, priority 2021, dated 2026).

## CO[C@H]1C(=O)[C@]2(C)[C@@H](OC)C[C@H]3OC[C@@]3(OC(C)=O)[C@H]2[C@H](OC(=O)c2ccccc2)[C@]2(O)C[C@H](OC(=O)[C@H](O)[C@@H](NC(=O)OC(C)(C)C)c3ccccc3)C(C)=C1C2(C)C [Cabazitaxel]
  solubility in ethanol: soluble
  solubility in water: almost insoluble
